According to PubChem BioAssay AID1918934 (Molecular Pharmacology Branch, DTP, NCI, 2023):

System: 292921-168-R-J2-PDC complex spheroid viability
Assay: Anticancer human tumor 292921-168-R-J2-PDC patient-derived pancreatic carcinoma cell line growth inhibition
Details: for IC50: curve of first compound; for viability, T/C: stronger effect = lower value
Summary of the method: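 Complex spheroids of tumor cells with HUVEC and human MSCs, exposed to iadademstat combined with other agents. Each agent tested in half-log steps from near clinical Cmax (else 10 microM top), DMSO ≤0.25%.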

[1] = second compound 0.1 µM, first compound 0.00949 µM
[2] = second compound 0.1 µM, first compound 0.03 µM
[3] = second compound 0.1 µM, first compound 0.0949 µM
[4] = second compound 0.1 µM, first compound 0.3 µM
[5] = second compound 0.316 µM, first compound 0.00949 µM
[6] = second compound 0.316 µM, first compound 0.03 µM
[7] = second compound 0.316 µM, first compound 0.0949 µM
[8] = second compound 0.316 µM, first compound 0.3 µM
[9] = second compound 1 µM, first compound 0.00949 µM
[10] = second compound 1 µM, first compound 0.03 µM
[11] = second compound 1 µM, first compound 0.0949 µM
[12] = second compound 1 µM, first compound 0.3 µM
[13] = second compound 3.16 µM, first compound 0.00949 µM
[14] = second compound 3.16 µM, first compound 0.03 µM
[15] = second compound 3.16 µM, first compound 0.0949 µM
[16] = second compound 3.16 µM, first compound 0.3 µM
[17] = second compound 10 µM, first compound 0.00949 µM
[18] = second compound 10 µM, first compound 0.03 µM
[19] = second compound 10 µM, first compound 0.0949 µM
[20] = second compound 10 µM, first compound 0.3 µM
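Note: seven day compound exposure before luminescent viability read.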
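Throughout, for viability, T/C: 100% = DMSO vehicle control wells.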

## Nc1ccccc1NC(=O)c1ccc(CNC(=O)OCc2cccnc2)cc1 + NC1CCC(NC2CC2c2ccccc2)CC1
Second compound 0.1 µM
  IC50: 28.7 nM
Second compound 0.316 µM
  IC50: 15.1 nM
Second compound 1 µM
  IC50: < 9.49 nM
Second compound 3.16 µM
  IC50: 13.1 nM
Second compound 10 µM
  IC50: < 9.49 nM
[1]
  viability, T/C: 61.3%
[2]
  viability, T/C: 48.3%
[3]
  viability, T/C: 34.6%
[4]
  viability, T/C: 20.5%
Second compound 0.1 µM, first compound 0.949 µM
  viability, T/C: 3.31%
Second compound 0.1 µM, first compound 3 µM
  viability, T/C: 0.22%
[5]
  viability, T/C: 53.1%
[6]
  viability, T/C: 45.2%
[7]
  viability, T/C: 34.6%
[8]
  viability, T/C: 18.8%
Second compound 0.316 µM, first compound 0.949 µM
  viability, T/C: 3.86%
Second compound 0.316 µM, first compound 3 µM
  viability, T/C: 0.24%
[9]
  viability, T/C: 50.8%
[10]
  viability, T/C: 39.9%
[11]
  viability, T/C: 33.4%
[12]
  viability, T/C: 20.6%
Second compound 1 µM, first compound 0.949 µM
  viability, T/C: 3.16%
Second compound 1 µM, first compound 3 µM
  viability, T/C: 0.22%
[13]
  viability, T/C: 52.9%
[14]
  viability, T/C: 43%
[15]
  viability, T/C: 27.2%
[16]
  viability, T/C: 16.3%
Second compound 3.16 µM, first compound 0.949 µM
  viability, T/C: 2.26%
Second compound 3.16 µM, first compound 3 µM
  viability, T/C: 0.38%
[17]
  viability, T/C: 42.5%
[18]
  viability, T/C: 39.5%
[19]
  viability, T/C: 26.8%
[20]
  viability, T/C: 14.2%
Second compound 10 µM, first compound 0.949 µM
  viability, T/C: 0.79%
Second compound 10 µM, first compound 3 µM
  viability, T/C: 0.3%

## Nc1ccn(C2OC(CO)C(O)C2(F)F)c(=O)n1 (stereo not given) + NC1CCC(NC2CC2c2ccccc2)CC1
Second compound 0.1 µM
  IC50: < 0.949 nM
Second compound 0.316 µM
  IC50: < 0.949 nM
Second compound 1 µM
  IC50: < 0.949 nM
Second compound 3.16 µM
  IC50: < 0.949 nM
Second compound 10 µM
  IC50: < 0.949 nM
Second compound 0.1 µM, first compound 0.000949 µM
  viability, T/C: 27.8%
Second compound 0.1 µM, first compound 0.003 µM
  viability, T/C: 9.83%
[1]
  viability, T/C: 8.07%
[2]
  viability, T/C: 6.88%
[3]
  viability, T/C: 7.25%
[4]
  viability, T/C: 6.85%
Second compound 0.316 µM, first compound 0.000949 µM
  viability, T/C: 28.2%
Second compound 0.316 µM, first compound 0.003 µM
  viability, T/C: 11.6%
[5]
  viability, T/C: 6.99%
[6]
  viability, T/C: 6.4%
[7]
  viability, T/C: 8.06%
[8]
  viability, T/C: 7.6%
Second compound 1 µM, first compound 0.000949 µM
  viability, T/C: 21.8%
Second compound 1 µM, first compound 0.003 µM
  viability, T/C: 10.7%
[9]
  viability, T/C: 8.29%
[10]
  viability, T/C: 7.78%
[11]
  viability, T/C: 8.71%
[12]
  viability, T/C: 7.52%
Second compound 3.16 µM, first compound 0.000949 µM
  viability, T/C: 22.2%
Second compound 3.16 µM, first compound 0.003 µM
  viability, T/C: 10.4%
[13]
  viability, T/C: 8.35%
[14]
  viability, T/C: 7.52%
[15]
  viability, T/C: 8.12%
[16]
  viability, T/C: 8.1%
Second compound 10 µM, first compound 0.000949 µM
  viability, T/C: 23.4%
Second compound 10 µM, first compound 0.003 µM
  viability, T/C: 10.2%
[17]
  viability, T/C: 9%
[18]
  viability, T/C: 9.62%
[19]
  viability, T/C: 8.3%
[20]
  viability, T/C: 9.08%

## O=C(c1cc(Cc2n[nH]c(=O)c3ccccc23)ccc1F)N1CCN(C(=O)C2CC2)CC1 + NC1CCC(NC2CC2c2ccccc2)CC1
Second compound 0.1 µM
  IC50: 4520 nM
Second compound 0.316 µM
  IC50: 3020 nM
Second compound 1 µM
  IC50: 1060 nM
Second compound 3.16 µM
  IC50: 1220 nM
Second compound 10 µM
  IC50: 1300 nM
Second compound 0.1 µM, first compound 0.0316 µM
  viability, T/C: 63.7%
Second compound 0.1 µM, first compound 0.1 µM
  viability, T/C: 65.6%
Second compound 0.1 µM, first compound 0.316 µM
  viability, T/C: 70.3%
Second compound 0.1 µM, first compound 1 µM
  viability, T/C: 58.6%
Second compound 0.1 µM, first compound 3.16 µM
  viability, T/C: 55%
Second compound 0.1 µM, first compound 10 µM
  viability, T/C: 39.5%
Second compound 0.316 µM, first compound 0.0316 µM
  viability, T/C: 61.5%
Second compound 0.316 µM, first compound 0.1 µM
  viability, T/C: 59.8%
Second compound 0.316 µM, first compound 0.316 µM
  viability, T/C: 64.7%
Second compound 0.316 µM, first compound 1 µM
  viability, T/C: 57.1%
Second compound 0.316 µM, first compound 3.16 µM
  viability, T/C: 47.5%
Second compound 0.316 µM, first compound 10 µM
  viability, T/C: 36%
Second compound 1 µM, first compound 0.0316 µM
  viability, T/C: 55.5%
Second compound 1 µM, first compound 0.1 µM
  viability, T/C: 58.6%
Second compound 1 µM, first compound 0.316 µM
  viability, T/C: 51.8%
Second compound 1 µM, first compound 1 µM
  viability, T/C: 51.9%
Second compound 1 µM, first compound 3.16 µM
  viability, T/C: 42.5%
Second compound 1 µM, first compound 10 µM
  viability, T/C: 31.8%
Second compound 3.16 µM, first compound 0.0316 µM
  viability, T/C: 55.4%
Second compound 3.16 µM, first compound 0.1 µM
  viability, T/C: 54.5%
Second compound 3.16 µM, first compound 0.316 µM
  viability, T/C: 60%
Second compound 3.16 µM, first compound 1 µM
  viability, T/C: 50.3%
Second compound 3.16 µM, first compound 3.16 µM
  viability, T/C: 42%
Second compound 3.16 µM, first compound 10 µM
  viability, T/C: 34.9%
Second compound 10 µM, first compound 0.0316 µM
  viability, T/C: 53.9%
Second compound 10 µM, first compound 0.1 µM
  viability, T/C: 54.4%
Second compound 10 µM, first compound 0.316 µM
  viability, T/C: 54.4%
Second compound 10 µM, first compound 1 µM
  viability, T/C: 52%
Second compound 10 µM, first compound 3.16 µM
  viability, T/C: 42.9%
Second compound 10 µM, first compound 10 µM
  viability, T/C: 32%
